According to paper PMC8904520, “Characterization of a small-molecule inhibitor targeting NEMO/IKKβ to suppress colorectal cancer growth” (Signal Transduction and Targeted Therapy, 2022):

Legend:
[1] = tested on: COX-2, iNOS, IL-6, TNF-α in LoVo and RKO cells; experiment: Expression of inflammatory markers by qPCR and western blotting; assay type: cell-based, human
Protocol: Protein lysates were separated by electrophoresis in a 10% acrylamide sodium dodecyl sulfate-polyacrylamide minigel (SDS-PAGE), electrophoretically transferred to a PVDF membrane, and immunoblotted with specific antibodies. The protein bands were detected by enhanced chemiluminescence. The protein concentrations were determined using a BCA protein assay kit (Beyotime Biotechnology, China). The experiments were carried out at least three times.

[2] = tested on: LoVo/IKKβmut (D738A/W739A/W741A) xenograft; experiment: LoVo/IKKβmut xenograft mouse model; assay type: in vivo, athymic nude mice; parameters: dose or concentration left out as unconfirmed
Protocol: Female athymic nude mice aged 5 weeks were purchased from Beijing Vital River Laboratory Animal Technology Co., Ltd., and kept in the SPF Laboratory Animal Center of Dalian Medical University (Dalian, China). All animals were given free access to sterilized food and water and were habituated for 7 days before the experiments. All procedures were carried out in strict accordance with the recommendations established by the Animal Care and Ethics Committee of Dalian Medical University as well as the guidelines promulgated in the U.S. National Institutes of Health Guide for the Care and Use of Laboratory Animals. LoVo cells (LoVo/wt and LoVo/ mut, 5×10^6 in 100 μL PBS) were injected subcutaneously near the axillary fossa of each nude mouse. Two weeks later, when the formed tumor reached 3-4mm, the animals were divided randomly into three groups with 5 mice in each group. […] The tumors were measured with a caliper once every two days, and the tumor volume was calculated using the formula V = 1/2 (width^2 × length). The body weight of the animals was also recorded. After treatment with SHK for 15 days, all experimental mice were sacrificed and the tumors from each mouse were excised and their weight was measured. […] The stained samples were examined under a Leica DM 4000B fluorescence microscope equipped with a digital camera. […]

[3] = tested on: NO release in LoVo and RKO cells; experiment: Nitric oxide production assay (Griess reagent); assay type: cell-based, human
Protocol: After overnight culture in a 96-well plate (1 × 10^4 cells in 100 μL medium per well), the cells were pre-treated with SHK for 1 hour and lipopolysaccharide for an additional 24 hours. The culture supernatant from each well was collected at the end of the experiment and used to measure NO production. The NO production was determined using a commercial NO assay kit on the basis of the Griess reaction (S0021, Beyotime Institute of Biotechnology, Shanghai, China) according to the manufacturer’s instructions.

With `CC(C)=CC[C@@H](O)C1=CC(=O)c2c(O)ccc(O)c2C1=O` [SHK, Shikonin] the “expression of inflammatory markers COX-2, iNOS, IL-6, TNF-α” value [1] was “suppressed the expression of inflammatory markers”, the “inhibitory effect on tumor growth in LoVo/IKKβ mutant group compared with LoVo/wt” value [2] was “significantly weakened” and the “release of NO” value [3] was “dramatically decreased”.
